Experimental data reported in US20210283116A1, “METHODS OF TREATING ACUTE KIDNEY INJURY” (Mitobridge, Inc., priority 2016, published 2021).

Experiments:
[1] = test system: rat model of acute kidney injury (ischemia reperfusion injury); experiment: Ischemia reperfusion injury rat model of acute kidney injury, Compound A intravenously; assay type: in vivo, Sprague-Dawley male rats
Procedure: Animals, surgery and dosing: Sprague-Dawley male rats approximately 280-300 g, with ad libitum access to standard feed and water were used in these experiments. Rats (n=8/group) were anesthetized with isoflurane and placed ventrally on a temperature controlled heated surgical platform. A skin incision was made on the dorsal surface, exposing both kidneys through flank incisions. Vascular clips were applied to both renal pedicles and occlusion lasted 45 minutes. After 45 min, the clips were removed, kidneys were monitored for successful reperfusion, and surgical sites were then sutured. The sham group (n=4 rats) was subjected to similar surgical procedures, except that the occluding clamps were not applied. Compound A was formulated as a fresh daily clear solution of the hydrate of the meglumine salt of Compound A (1.5 Molar equivalent of Compound A) in 5% dextrose. Compound A was dosed IV via tail vein at 3 mg/kg, 1 mg/kg or 0.3 mg/kg 4 hours after animals awoke from surgery and sham surgery and IRI control animals were similarly dosed with vehicle.
Blood collection: Twenty-four (24) hours after reperfusion, blood was collected in K2 EDTA tubes by retro-orbital bleeding from all groups under mild isoflurane anesthesia. Plasma was separated by centrifugation at 3000 rpm for 10 minutes at 4° C. Urine collection: all study animal groups were placed in metabolic cages immediately after surgery recovery and urine was collected for 24 or 48 hours. Urine volume was carefully measured and then was centrifuged at 3000 rpm for 10 min at 4° C. to remove sediments. Plasma and urine creatinine were analyzed using a fully automated clinical biochemistry analyzer (Siemens Dimension® Xpand® Plus Integrated Chemistry System). Urinary NGAL was analyzed using a BioPorto ELISA kit. Creatinine clearance was calculated as follows: […]
GraphPad Prism software, Version 6.05 was used for graphing and statistical testing. Creatinine was tested for normal distribution in all groups via a D'Agostino-Pearson omnibus normality test and a Shapiro-Wilk normality test. Statistical significance (p<0.05) is determined by an ordinary One-way ANOVA followed by Dunnett's multiple comparison using the […] as the control group. **p<0.01, ***p<0.001 and ****p<0.0001 vs. IR-Vehicle.

[2] = test system: rat model of acute kidney injury (ischemia reperfusion injury); experiment: Ischemia reperfusion injury rat model of acute kidney injury, Compound B orally; assay type: in vivo, Sprague-Dawley male rats
Procedure: Animals, surgery and dosing: Sprague-Dawley male rats approximately 280-300 g, with ad libitum access to standard feed and water were used in these experiments. Rats (n=8/group) were anesthetized with isoflurane and placed ventrally on a temperature controlled heated surgical platform. A skin incision was made on the dorsal surface, exposing both kidneys through flank incisions. Vascular clips were applied to both renal pedicles and occlusion lasted 45 minutes. After 45 min, the clips were removed, kidneys were monitored for successful reperfusion, and surgical sites were sutured. The sham group (n=4 rats) was subjected to similar surgical procedures, except that the occluding clamps were not applied. Compound B was formulated as a fresh daily suspension in 0.25% sodium carboxymethyl-cellulose, 0.25% Tween-80 in purified water. Compound B was dosed orally at 30 mg/kg 4 hours after animals awoke from surgery and sham surgery and IRI control animals were similarly dosed with vehicle. Blood collection: Twenty-four (24) hours after reperfusion, blood was collected in K2 EDTA tubes by retro-orbital bleeding from all groups under mild isoflurane anesthesia. Plasma was separated by centrifugation at 3000 rpm for 10 minutes at 4° C. Urine collection: all study animal groups were placed in metabolic cages immediately after surgery recovery and urine was collected for 24 hours. Urine volume was carefully measured and then was centrifuged at 3000 rpm for 10 min at 4° C. to remove sediments. Plasma and urine creatinine were analyzed using a fully automated clinical biochemistry analyzer (Siemens Dimension® Xpand® Plus Integrated Chemistry System). Creatinine clearance was calculated as follows: […]
GraphPad Prism software, Version 6.05 was used for graphing and statistical testing. Data was tested for normal distribution in all groups via a D'Agostino-Pearson omnibus normality test and a Shapiro-Wilk normality test. […] Statistical significance is determined by p<0.05 of IRI-vehicle compared to compound treated groups. **p<0.01 and ***p<0.001 vs. IR-Vehicle. […]

Structure (SMILES)	kidney function (creatinine clearance) ([1]; 0.3 mg/kg, 1 mg/kg or 3 mg/kg IV 4 hours after ischemia, 24 hours after kidney injury, vs. IR-Vehicle)	plasma creatinine ([1]; 0.3 mg/kg, 1 mg/kg or 3 mg/kg IV 4 hours after ischemia, 24 hours after reperfusion, vs. IR-Vehicle)	early kidney injury biomarker NGAL (urinary) ([1]; 0.3 mg/kg, 1 mg/kg or 3 mg/kg IV 4 hours after ischemia, 48 hours after kidney injury, vs. IR-Vehicle)	kidney injury ([1]; dosed IV 4 hours after ischemia, hydrate of meglumine salt in 5% dextrose)	plasma creatinine ([2]; 30 mg/kg orally 4 hours after ischemia, 24 hours after reperfusion, vs. IR-Vehicle)	kidney function (creatinine clearance) ([2]; 30 mg/kg orally 4 hours after ischemia, 24 hours urine collection, vs. IR-Vehicle)	kidney injury ([2]; 30 mg/kg orally, dosed 4 hours after ischemia)
Cc1cnc(-c2ccc(C(F)(F)F)nc2)n1Cc1ccccc1OCCC[C@@H](C)CC(=O)O [Compound A, (R)-3-methyl-6-(2-((5-methyl-2-(6-(trifluoromethyl)pyridin-3-yl)-1H-imidazol-1-yl)methyl)phenoxy)hexanoic acid]	improves kidney function	significantly reduces plasma creatinine	reduces the early kidney injury biomarker NGAL	reduces kidney injury			
Cc1cc(SCc2nn(-c3ccc(C(F)(F)F)cc3)nc2C)ccc1OCC(=O)O [Compound B]					reduces plasma creatinine	improves kidney function	reduces kidney injury
